Measured values from publication PMC12376458, “Multi-omics analysis reveals ACOT1 as the key target of piperine in Piper Longum-mediated gastric cancer treatment” (Chinese Medicine, 2025).

Biological target: T1, ACOT1 (Acyl-CoA Thioesterase 1) (Homo sapiens, UniProt Q86TX2)
T1 construct: endogenous protein in NP-40 cell lysate, western blot read-out; mouse MFC used for xenograft
T1 sequence (Q86TX2 2-421): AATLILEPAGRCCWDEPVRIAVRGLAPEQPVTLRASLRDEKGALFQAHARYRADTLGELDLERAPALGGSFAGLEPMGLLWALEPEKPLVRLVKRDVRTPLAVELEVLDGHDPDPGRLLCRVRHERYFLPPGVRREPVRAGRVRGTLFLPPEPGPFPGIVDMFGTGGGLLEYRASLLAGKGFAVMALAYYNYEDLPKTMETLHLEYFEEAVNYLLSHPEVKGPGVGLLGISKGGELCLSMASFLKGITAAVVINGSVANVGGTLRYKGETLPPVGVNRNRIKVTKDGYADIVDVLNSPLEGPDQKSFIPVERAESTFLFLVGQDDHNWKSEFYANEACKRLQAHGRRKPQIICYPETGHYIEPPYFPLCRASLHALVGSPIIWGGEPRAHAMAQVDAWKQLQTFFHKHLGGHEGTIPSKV
Experiment: cellular thermal shift assay (CETSA) in cell lysate, western blot
Format: biochemical
Details: 60 μM piperine vs DMSO, 4 °C 5 h, then 35–60 °C for 3 min

`O=C(/C=C/C=C/c1ccc2c(c1)OCO2)N1CCCCC1` [piperine] was tested, and the “cellular thermal shift assay (CETSA) in cell lysate, western blot” value was “CETSA experimental results showed that piperine treatment enhanced the thermal stability of ACOT1”.
